Data: the kinase profiling compilation of Christmann-Franck et al. (2016)

Experiments:
Assay in all cases: KINOMEscan competition binding
[1] = target: TTK (human) (UniProt P33981)
[2] = target: PAK7 (human) (UniProt Q9P286)
[3] = target: PRKACA (human) (UniProt P17612)
[4] = target: KIT (human) (UniProt P10721)
[5] = target: MAPK8 (human) (UniProt P45983)
[6] = target: CAMK2B (human) (UniProt Q13554)
[7] = target: AURKC (human) (UniProt Q9UQB9)
[8] = target: MAPK14 (human) (UniProt Q16539)
[9] = target: PIM2 (human) (UniProt Q9P1W9)
[10] = target: INSR (human) (UniProt P06213)
[11] = target: FLT3 (human) (UniProt P36888)
[12] = target: PIM1 (human) (UniProt P11309)
[13] = target: NEK6 (human) (UniProt Q9HC98)
[14] = target: RPS6KA5 KD1 (human) (UniProt O75582)
[15] = target: NEK9 (human) (UniProt Q8TD19)
[16] = target: CAMK1 (human) (UniProt Q14012)
Sequence of CAMK1 (human) (Q14012 whole entry, looked up): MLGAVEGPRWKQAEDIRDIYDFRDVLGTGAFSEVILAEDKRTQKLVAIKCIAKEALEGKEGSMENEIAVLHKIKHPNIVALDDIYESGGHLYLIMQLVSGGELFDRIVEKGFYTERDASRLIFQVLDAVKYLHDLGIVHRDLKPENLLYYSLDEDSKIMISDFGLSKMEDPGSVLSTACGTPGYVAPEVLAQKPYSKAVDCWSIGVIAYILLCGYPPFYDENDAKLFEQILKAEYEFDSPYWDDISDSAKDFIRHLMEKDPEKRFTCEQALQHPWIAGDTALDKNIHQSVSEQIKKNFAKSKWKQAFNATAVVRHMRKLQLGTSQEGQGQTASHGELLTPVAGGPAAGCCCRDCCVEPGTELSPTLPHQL

[17] = target: KDR (human) (UniProt P35968)
[18] = target: EPHA4 (human) (UniProt P54764)
[19] = target: AURKA (human) (UniProt O14965)
[20] = target: CSNK1G1 (human) (UniProt Q9HCP0)
[21] = target: CAMKK1 (human) (UniProt Q8N5S9)
[22] = target: MAPK10 (human) (UniProt P53779)
[23] = target: FGR (human) (UniProt P09769)
[24] = target: CAMK2G (human) (UniProt Q13555)
[25] = target: JAK1 JH1 catalytic (human) (UniProt P23458)
[26] = target: STK16 (human) (UniProt O75716)
[27] = target: DAPK2 (human) (UniProt Q9UIK4)
[28] = target: PTK6 (human) (UniProt Q13882)
[29] = target: CDK2 (human) (UniProt P24941)
[30] = target: MAPK9 (human) (UniProt P45984)
[31] = target: PLK4 (human) (UniProt O00444)
[32] = target: RIPK2 (human) (UniProt O43353)
[33] = target: FLT4 (human) (UniProt P35916)
[34] = target: CAMK2A (human) (UniProt Q9UQM7)
[35] = target: CAMK2D (human) (UniProt Q13557)
[36] = target: FGFR1 (human) (UniProt P11362)
[37] = target: EPHA7 (human) (UniProt Q15375)
[38] = target: MAPK11 (human) (UniProt Q15759)
[39] = target: FGFR2 (human) (UniProt P21802)
[40] = target: PDGFRB (human) (UniProt P09619)
Sequence of PDGFRB (human) (P09619 whole entry, looked up): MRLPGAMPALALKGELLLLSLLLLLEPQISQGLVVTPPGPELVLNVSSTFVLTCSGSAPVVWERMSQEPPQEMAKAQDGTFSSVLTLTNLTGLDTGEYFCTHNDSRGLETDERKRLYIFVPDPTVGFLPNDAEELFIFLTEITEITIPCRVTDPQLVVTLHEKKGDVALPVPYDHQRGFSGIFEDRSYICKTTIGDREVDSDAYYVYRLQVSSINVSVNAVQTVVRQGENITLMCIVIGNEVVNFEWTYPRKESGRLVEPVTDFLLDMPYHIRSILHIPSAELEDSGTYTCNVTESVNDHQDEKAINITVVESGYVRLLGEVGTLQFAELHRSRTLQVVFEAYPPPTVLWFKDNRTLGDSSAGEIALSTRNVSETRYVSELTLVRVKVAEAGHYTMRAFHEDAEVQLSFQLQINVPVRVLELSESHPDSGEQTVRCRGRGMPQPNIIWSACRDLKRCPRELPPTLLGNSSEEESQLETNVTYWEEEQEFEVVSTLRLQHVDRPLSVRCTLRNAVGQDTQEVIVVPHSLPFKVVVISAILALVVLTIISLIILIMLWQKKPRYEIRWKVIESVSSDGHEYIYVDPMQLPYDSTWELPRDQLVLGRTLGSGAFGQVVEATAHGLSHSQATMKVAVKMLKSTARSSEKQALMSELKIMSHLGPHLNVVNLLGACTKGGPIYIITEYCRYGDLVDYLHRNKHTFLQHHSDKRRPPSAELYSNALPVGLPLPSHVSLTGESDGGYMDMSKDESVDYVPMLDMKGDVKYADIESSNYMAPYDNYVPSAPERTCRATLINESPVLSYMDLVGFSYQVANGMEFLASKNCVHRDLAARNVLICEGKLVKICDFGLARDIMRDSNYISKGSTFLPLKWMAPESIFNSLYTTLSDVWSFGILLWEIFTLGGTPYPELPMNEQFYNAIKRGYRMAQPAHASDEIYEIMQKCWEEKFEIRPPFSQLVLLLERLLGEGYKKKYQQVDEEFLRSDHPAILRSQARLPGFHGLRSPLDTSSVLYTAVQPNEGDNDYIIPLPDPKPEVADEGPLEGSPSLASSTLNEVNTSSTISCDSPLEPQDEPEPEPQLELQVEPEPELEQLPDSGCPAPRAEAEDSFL

[41] = target: LIMK1 (human) (UniProt P53667)
[42] = target: CDK5 (human) (UniProt Q00535)
Sequence of CDK5 (human) (Q00535 whole entry, looked up): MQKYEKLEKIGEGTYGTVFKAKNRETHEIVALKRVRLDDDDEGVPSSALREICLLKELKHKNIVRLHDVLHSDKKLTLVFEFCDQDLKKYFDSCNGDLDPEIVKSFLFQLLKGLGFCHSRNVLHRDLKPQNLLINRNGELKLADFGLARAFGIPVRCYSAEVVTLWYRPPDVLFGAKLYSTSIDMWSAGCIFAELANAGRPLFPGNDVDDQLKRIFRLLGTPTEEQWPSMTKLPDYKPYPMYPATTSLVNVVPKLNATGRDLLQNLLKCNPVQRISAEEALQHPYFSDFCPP

[43] = target: MKNK2 (human) (UniProt Q9HBH9)
[44] = target: EPHA2 (human) (UniProt P29317)
[45] = target: MAP3K5 (human) (UniProt Q99683)
Sequence of MAP3K5 (human) (Q99683 whole entry, looked up): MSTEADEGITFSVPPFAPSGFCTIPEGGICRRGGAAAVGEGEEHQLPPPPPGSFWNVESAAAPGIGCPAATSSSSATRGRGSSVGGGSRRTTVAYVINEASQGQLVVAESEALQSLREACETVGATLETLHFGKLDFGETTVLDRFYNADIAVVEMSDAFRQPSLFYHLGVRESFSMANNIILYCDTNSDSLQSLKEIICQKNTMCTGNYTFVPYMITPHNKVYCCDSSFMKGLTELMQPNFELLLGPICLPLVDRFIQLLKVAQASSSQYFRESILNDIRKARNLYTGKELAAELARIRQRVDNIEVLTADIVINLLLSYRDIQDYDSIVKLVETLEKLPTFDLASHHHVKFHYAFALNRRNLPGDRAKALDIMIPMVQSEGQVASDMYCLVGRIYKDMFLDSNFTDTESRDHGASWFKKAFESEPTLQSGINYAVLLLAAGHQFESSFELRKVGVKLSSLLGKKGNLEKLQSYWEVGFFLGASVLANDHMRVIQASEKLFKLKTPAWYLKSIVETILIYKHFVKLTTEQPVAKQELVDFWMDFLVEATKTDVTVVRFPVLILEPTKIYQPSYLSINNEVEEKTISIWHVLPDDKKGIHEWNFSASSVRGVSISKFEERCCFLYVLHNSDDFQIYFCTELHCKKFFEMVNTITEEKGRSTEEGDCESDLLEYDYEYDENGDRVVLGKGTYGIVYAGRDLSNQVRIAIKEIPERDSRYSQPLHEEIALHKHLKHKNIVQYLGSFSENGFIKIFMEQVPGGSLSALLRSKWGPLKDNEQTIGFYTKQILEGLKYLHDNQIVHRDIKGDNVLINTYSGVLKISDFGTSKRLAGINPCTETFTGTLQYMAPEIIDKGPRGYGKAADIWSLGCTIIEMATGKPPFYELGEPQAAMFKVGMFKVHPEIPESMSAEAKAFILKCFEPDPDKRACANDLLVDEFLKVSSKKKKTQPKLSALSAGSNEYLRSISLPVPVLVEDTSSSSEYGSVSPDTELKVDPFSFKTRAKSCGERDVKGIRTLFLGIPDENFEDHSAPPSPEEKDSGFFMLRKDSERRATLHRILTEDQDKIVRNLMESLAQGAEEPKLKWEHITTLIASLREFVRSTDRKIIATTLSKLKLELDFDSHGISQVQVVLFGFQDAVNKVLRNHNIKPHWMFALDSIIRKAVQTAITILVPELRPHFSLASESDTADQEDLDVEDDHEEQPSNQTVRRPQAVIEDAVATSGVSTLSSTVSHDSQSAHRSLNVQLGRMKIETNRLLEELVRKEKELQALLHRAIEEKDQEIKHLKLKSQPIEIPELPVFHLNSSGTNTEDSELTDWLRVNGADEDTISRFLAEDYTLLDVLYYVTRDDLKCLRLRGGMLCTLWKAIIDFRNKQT

[46] = target: RPS6KA3 KD1 (human) (UniProt P51812)
[47] = target: PAK4 (human) (UniProt O96013)
[48] = target: NTRK1 (human) (UniProt P04629)
[49] = target: PAK6 (human) (UniProt Q9NQU5)
Sequence of PAK6 (human) (Q9NQU5 whole entry, looked up): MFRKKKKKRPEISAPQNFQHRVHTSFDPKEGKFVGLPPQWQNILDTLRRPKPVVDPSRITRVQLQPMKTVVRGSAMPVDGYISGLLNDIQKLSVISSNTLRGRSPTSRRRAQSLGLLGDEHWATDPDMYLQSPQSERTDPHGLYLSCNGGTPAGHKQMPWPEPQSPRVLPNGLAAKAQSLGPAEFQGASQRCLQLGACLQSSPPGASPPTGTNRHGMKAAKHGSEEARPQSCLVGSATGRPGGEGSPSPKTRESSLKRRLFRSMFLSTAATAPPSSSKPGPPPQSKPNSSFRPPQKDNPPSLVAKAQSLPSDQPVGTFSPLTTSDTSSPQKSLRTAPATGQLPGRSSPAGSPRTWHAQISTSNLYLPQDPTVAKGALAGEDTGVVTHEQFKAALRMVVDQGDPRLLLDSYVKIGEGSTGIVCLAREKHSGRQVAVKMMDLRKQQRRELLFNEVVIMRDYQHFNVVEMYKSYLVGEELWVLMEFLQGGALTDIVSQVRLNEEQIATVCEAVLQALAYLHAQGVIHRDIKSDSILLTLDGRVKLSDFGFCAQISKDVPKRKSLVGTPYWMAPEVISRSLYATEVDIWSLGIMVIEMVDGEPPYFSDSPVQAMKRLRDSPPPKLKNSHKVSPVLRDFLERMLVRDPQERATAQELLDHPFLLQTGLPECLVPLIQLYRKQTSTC

[50] = target: MAPK12 (human) (UniProt P53778)
[51] = target: FGFR3 (human) (UniProt P22607)
[52] = target: PRKAA1 (human) (UniProt Q13131)

Measured: Kd

Sequence of TTK (human) (P33981 whole entry, looked up): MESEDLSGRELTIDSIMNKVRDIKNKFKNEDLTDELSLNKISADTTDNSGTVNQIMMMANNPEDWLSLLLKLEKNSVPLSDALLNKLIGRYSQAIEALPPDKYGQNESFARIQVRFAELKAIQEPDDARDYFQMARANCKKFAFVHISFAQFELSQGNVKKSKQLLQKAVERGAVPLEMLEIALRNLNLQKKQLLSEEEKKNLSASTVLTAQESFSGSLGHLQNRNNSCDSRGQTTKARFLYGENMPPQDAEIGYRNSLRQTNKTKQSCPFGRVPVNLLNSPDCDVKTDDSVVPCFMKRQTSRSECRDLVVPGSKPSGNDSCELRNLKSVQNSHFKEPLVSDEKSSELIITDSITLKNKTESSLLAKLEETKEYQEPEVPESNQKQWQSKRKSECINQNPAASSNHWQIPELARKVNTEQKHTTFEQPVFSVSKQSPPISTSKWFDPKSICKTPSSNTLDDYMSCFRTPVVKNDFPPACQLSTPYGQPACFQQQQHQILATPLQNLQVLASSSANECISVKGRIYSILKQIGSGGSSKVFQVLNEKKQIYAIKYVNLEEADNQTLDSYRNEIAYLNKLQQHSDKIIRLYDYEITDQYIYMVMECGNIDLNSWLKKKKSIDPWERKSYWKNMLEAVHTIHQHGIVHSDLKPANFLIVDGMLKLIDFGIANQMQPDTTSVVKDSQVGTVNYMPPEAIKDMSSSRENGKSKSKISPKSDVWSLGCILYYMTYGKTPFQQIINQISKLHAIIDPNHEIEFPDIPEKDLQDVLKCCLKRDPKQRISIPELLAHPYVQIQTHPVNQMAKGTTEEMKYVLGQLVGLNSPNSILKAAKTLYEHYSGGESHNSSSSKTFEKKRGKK
Sequence of AURKC (human) (Q9UQB9 whole entry, looked up): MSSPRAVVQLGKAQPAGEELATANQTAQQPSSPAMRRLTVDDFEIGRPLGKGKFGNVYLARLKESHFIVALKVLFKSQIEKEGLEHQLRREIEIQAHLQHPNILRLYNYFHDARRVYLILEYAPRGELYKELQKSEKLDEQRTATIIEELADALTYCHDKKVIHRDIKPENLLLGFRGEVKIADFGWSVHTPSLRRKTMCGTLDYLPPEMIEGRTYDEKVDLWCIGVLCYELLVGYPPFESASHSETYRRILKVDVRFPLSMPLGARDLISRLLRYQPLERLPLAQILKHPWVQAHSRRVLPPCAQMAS

CS(=O)c1ccc(-c2nc(-c3ccc(F)cc3)c(-c3ccncc3)[nH]2)cc1 (stereo not drawn)
> 10 µM: [1]

CCOc1cc2ncc(C#N)c(Nc3ccc(F)c(Cl)c3)c2cc1NC(=O)/C=C/CN(C)C
> 10 µM: all assays above
